# Assay results from patent US20100227853A1, “INHIBITORS OF CYCLIC AMP PHOSPHODIESTERASES” (Trustees of Boston College, priority 2008, published 2010).
# Where two headings read alike, the source gives them in different places.
# Tests used:
# [1] = tested on: PDE4A, PDE4B, PDE4D, PDE7A, PDE7B, PDE8A, PDE3A; assay: Summary of PDE inhibitor profile; parameters: key: (1): Strong PDE7A inhibitor, weak to moderate PDE4A, 4B inhibitor; (2): Strong PDE7A and PDE4s (including PDE4D) inhibitor; (3): Strong PDE7A inhibitor; settings: overall classification, Table 18 footnotes
# PDE4B3 = target: T1, PDE4B3 (Mus musculus, UniProt Q8VBU5); assay: cAMP response in yeast strain expressing PDE4B3; type: cell-based, Murine
# T1 construct: targets used in the assays are full-length proteins (as opposed to simply the catalytic domain); expressed in transfected cells; host or cells: Schizosaccharomyces pombe, PDE gene integrated in place of cgs2
# T1 sequence (Q8VBU5 1-721): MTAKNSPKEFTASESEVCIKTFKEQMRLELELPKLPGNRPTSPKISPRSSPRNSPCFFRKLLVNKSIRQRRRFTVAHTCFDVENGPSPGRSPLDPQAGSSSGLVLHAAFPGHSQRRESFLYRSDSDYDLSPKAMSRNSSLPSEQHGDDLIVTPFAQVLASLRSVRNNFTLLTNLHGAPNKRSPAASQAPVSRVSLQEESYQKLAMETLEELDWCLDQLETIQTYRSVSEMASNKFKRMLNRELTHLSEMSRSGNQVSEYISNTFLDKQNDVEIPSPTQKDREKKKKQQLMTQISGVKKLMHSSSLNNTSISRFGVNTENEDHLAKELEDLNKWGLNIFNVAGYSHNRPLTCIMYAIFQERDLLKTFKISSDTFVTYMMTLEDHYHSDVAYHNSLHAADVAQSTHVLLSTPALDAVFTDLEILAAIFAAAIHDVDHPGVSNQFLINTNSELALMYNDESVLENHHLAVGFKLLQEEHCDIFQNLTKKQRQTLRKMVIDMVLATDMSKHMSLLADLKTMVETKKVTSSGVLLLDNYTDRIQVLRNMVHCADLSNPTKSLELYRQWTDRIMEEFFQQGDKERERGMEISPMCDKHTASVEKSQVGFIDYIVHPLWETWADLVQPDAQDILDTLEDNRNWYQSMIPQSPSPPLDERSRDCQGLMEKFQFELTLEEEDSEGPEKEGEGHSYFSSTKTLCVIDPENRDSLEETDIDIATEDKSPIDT
# Excerpt: Values represent the average and SD of two or three independent experiments. […] The strains used are as in FIG. 5A, together with strain CHP1141 (PDE8A). Values represent the average and SD of two or three independent experiments.
# Thus, PDE inhibition can be indirectly quantitated by measuring the effect of a compound on cAMP levels in target yeast strains.
# PDE7B [2] = target: T2, PDE7B (Homo sapiens, UniProt Q9NP56); assay: 5FOA growth assay in fission yeast strain expressing PDE7B; type: cell-based; parameters: targets used in the assays are full-length proteins (as opposed to simply the catalytic domain); expressed in transfected cells; host or cells: Schizosaccharomyces pombe; settings: OD600 0.6; read-out: ED50 for 5FOA growth assays, PDE7B
# Description: PDE inhibition allows growth in 5FOA medium as measured by optical density after 48 hours incubation at 30° C. Compound BC12 and six structural analogs were tested for growth stimulation.
# (§1) Cells were pregrown in EMM medium [MP Biomedicals (Solon, Ohio), 3% glucose, filter-sterilized to avoid carmelization, which would introduce variability into the optical density of the medium] containing from 0 mM to 2.5 mM cAMP (or either 0.5 mM or 1.0 mM cGMP). This was to repress expression of the fbp1-ura4 reporter prior to exposure of cells to 5FOA medium. Cells were grown at 30° C. to exponential phase (approximately 10^7 cells/ml). Cells were collected by centrifugation and resuspended in 5FOA medium, and 25 μl were transferred to 384-well microtiter dishes (untreated, with flat clear bottoms) that had been pre-filled with 25 μl 5FOA medium and pre-pinned with 100 nl of compounds (stock solutions were generally 10 mM). Starting cell concentrations ranged from 0.5×10^5 to 4×10^5 cells/ml depending on the screening strain. […] Other positive control dishes contained 5 mM cAMP in the 5FOA medium for PDEs that lack appropriate control compounds. Cultures were grown for 48 hours at 30° C., sealed in an airtight container with moist paper towels to prevent evaporation. Optical densities (OD600) of cultures were measured using a microplate reader. Bioinformatic analysis of the results to determine composite Z scores was performed as previously described (1, 3).
# Target sequence in this assay (Q9NP56 whole entry, species assumed, the tested form may be a part): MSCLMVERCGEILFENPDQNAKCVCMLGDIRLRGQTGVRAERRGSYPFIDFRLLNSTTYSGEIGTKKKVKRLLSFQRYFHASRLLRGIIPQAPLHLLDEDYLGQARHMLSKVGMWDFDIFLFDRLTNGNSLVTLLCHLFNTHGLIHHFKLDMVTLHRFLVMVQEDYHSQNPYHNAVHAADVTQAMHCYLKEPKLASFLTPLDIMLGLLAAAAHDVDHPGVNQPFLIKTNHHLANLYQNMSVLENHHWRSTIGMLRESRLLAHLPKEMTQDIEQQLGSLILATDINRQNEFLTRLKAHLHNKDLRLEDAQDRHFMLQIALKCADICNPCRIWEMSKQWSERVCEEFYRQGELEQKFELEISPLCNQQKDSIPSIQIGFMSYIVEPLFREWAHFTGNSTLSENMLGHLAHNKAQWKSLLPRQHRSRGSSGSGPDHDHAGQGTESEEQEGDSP
# PDE4B2 = PDE4B2 (Homo sapiens, UniProt Q07343); assay: 5FOA growth assay in fission yeast strain expressing PDE4B2; type: cell-based; parameters: targets used in the assays are full-length proteins (as opposed to simply the catalytic domain); expressed in transfected cells; host or cells: Schizosaccharomyces pombe; settings: OD600 0.6
# PDE4B2, sequence (Q07343 1-564 isoform Q07343-2, species assumed): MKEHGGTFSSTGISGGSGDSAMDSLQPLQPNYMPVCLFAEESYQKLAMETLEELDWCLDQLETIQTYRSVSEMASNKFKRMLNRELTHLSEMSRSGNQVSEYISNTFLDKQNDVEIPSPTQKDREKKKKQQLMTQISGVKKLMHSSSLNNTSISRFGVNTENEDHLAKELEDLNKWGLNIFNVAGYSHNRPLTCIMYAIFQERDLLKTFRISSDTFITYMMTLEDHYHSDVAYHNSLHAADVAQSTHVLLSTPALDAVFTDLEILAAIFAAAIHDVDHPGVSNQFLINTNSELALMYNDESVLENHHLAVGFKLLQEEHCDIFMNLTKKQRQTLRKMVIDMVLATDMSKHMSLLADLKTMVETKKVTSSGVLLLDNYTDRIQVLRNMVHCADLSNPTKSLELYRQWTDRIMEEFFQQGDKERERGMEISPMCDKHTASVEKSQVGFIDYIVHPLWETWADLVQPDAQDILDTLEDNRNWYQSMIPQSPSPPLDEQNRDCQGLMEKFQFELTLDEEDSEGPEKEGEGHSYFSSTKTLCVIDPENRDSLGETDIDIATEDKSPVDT
# Description: as §1, with “Cells were collected by centrifugation and resuspended in 5FOA medium, and 25 μl were transferred to 384-well microtiter dishes (untreated, with flat clear bottoms) that had been pre-filled with 25 μl 5FOA medium and pre-pinned with 100 nl of compounds (stock solutions were generally 10 mM).” left out
# PDE7B [3] = target: T2, PDE7B; assay: in vitro enzyme assay, PDE7B catalytic domain from E. coli, hydrolysis of cAMP to AMP; type: biochemical; parameters: The PDE7B catalytic domain was expressed in and purified from E. coli; made in house; host or cells: E. coli
# Description: The PDE7B catalytic domain was expressed in and purified from E. coli and tested for activity in an in vitro enzyme assay, measuring the hydrolysis of cAMP to AMP. Four dilutions of the enzyme preparation were tested at various compound concentrations (X axis). The percent of cAMP hydrolyzed is plotted on the Y axis.
# Target sequence in this assay (Q9NP56 97-420 limits assumed, species assumed): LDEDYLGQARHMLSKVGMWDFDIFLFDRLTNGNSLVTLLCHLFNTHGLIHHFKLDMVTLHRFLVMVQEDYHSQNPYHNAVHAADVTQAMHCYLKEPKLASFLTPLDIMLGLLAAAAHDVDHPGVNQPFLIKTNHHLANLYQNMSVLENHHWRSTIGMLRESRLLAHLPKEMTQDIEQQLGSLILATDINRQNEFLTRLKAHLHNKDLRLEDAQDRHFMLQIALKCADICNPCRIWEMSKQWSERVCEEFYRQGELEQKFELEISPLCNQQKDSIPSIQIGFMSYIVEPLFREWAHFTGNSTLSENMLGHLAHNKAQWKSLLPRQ
smiles,measurement,setting,value
COc1ccc2c(c1)[C@@]1(C)CCC[C@](C)(CO)C1CC2 (some centres unmarked) [Compound 2067M03],PDE inhibitor profile (Table 18),[1],2067M03 (1)
COC(=O)C1=C(C)N(C2CCCCC2)C(=O)/C1=C\c1cccs1 [Compound 22],"cAMP Response (% rolipram), 4B3",PDE4B3,51.00 % rolipram
Cc1ccc2c(c1)CCC1CC(=O)CC[C@]21C (some centres unmarked) [Compound 2158J12],PDE inhibitor profile (Table 18),[1],2158J12 (2)
Cc1sc2ncnc(Nc3ccccc3)c2c1C [BC64],EC50,PDE7B [2],> 200000 nM
same,EC50,"PDE4B2; read-out: ED50 for 5FOA growth assays, PDE4B2",> 200000 nM
CCN(CC)c1ncnc2sc3c(c12)CCCC3 [BC44],EC50,PDE7B [2],2100 nM
CCC1CCc2c(sc3ncnc(N4CCOCC4)c23)C1 (centres unmarked) [BC33],EC50,"PDE4B2; value marked (m), read-out: ED50 for 5FOA growth assays, PDE4B2 (m)",1700 nM
Cc1c(C(=O)Nc2ccc(F)cc2F)sc2ncnc(N3CCC(C)CC3)c12 [BC58],"PDE7B, 2 uM cpm",PDE7B [3]; 2 uM compound,15093 cpm
N#Cc1sc2sc(C#N)c(-c3ccco3)c2c1N [Compound 30],"cAMP Response, 4B3","PDE4B3; Table 16, unit not given",67
same,IC50,"PDE7B [3]; AC200 = [Compound] that doubles PDE activity, read-out: IC50 (or AC200), PDE7B",12 µM
COC(=O)C1=C(C)N(c2ccccc2Cl)C(=O)/C1=C\c1cccs1 [Compound 27],"cAMP Response (% rolipram), 4B3",PDE4B3,71.00 % rolipram
